In patent publication US7375081B2, “Therapeutic combination of a pneumocandin derivative and an antifungal agent” (Astellas Pharma Inc., priority 1999, dated 2008):
Like-named read-outs stand apart in the source and are kept apart here. One block for each compound: values may come before it.

Test system: clinical isolates of Aspergillus fumigatus
Experiment: Broth microdilution checkerboard MIC, RPMI medium (pH 7.0), drugs alone and combined
Assay type: cell-based
Details: for MIC: Aspergillus fumigatus
Protocol: The broth microdillution method using RPMI medium (pH 7.0) was used, comparing the each drug alone (Test Compound, AMPH-B, ITCZ, Nikkomycin X and 5-FC) and combined for each clinical isolates of Aspergillus fumigatus. A combination of drug concentrations was evaluated by the checkerboard method.
All tubes were examined macroscopically for growth and compared to a control (no drug). MIC was visually determined as the lowest concentration resulting in prominent decrease in turbidity compared to controls.
The Fractional Inhibitory Concentration (FIC) for each drug in mixture wells was compared to the MIC for each drug alone. The FIC index was calculated from the sum of the FICs for the two drugs. A quantitative expression of the interaction for inhibition is as follows: Synergy≦0.5; Test Result In vitro combination with Test Compound and AMPH-B against A. fumigatus

- MIC 5-FC Combination (A. fumigatus FP1990, in combination with Test Compound): 8 µg/mL
- MIC (A. fumigatus FP1990, drug alone, read-out: MIC 5-FC Alone): > 32 µg/mL
SMILES: Nc1[nH]c(=O)ncc1F [5-FC, flucytosine]

SMILES: CCCCCOc1ccc(-c2cc(-c3ccc(C(=O)NC4CC(O)C(O)NC(=O)C5C(O)C(C)CN5C(=O)C(C(O)CC(N)=O)NC(=O)C(C(O)C(O)c5ccc(O)c(OS(=O)(=O)[O-])c5)NC(=O)C5CC(O)CN5C(=O)C(C(C)O)NC4=O)cc3)no2)cc1.[Na+] (stereo not shown) [Test Compound]
- MIC Test Compound Combination (A. fumigatus 8004, in combination with AMPH-B): 0.0078 µg/mL
- MIC Test Compound Combination (A. fumigatus 8008, in combination with ITCZ): 0.0078 µg/mL
- MIC Test Compound Combination (A. fumigatus FP1923, in combination with Nikkomycin X): ≦0.001 μg/ml
- MIC Test Compound Combination (A. fumigatus FP1990, in combination with 5-FC): 0.002 µg/mL
- MIC (read-out: MIC Test Compound Alone, A. fumigatus 8004, drug alone): 0.0313 µg/mL
- MIC (read-out: MIC Test Compound Alone, A. fumigatus 8008, drug alone): 0.0313 µg/mL
- MIC (read-out: MIC Test Compound Alone, A. fumigatus FP1923, drug alone): 0.0039 µg/mL
- MIC (read-out: MIC Test Compound Alone, A. fumigatus FP1990, drug alone): 0.0078 µg/mL

- MIC ITCZ Combination (A. fumigatus 8008, in combination with Test Compound): 0.125 µg/mL
- MIC (A. fumigatus 8008, drug alone, read-out: MIC ITCZ Alone): 0.5 µg/mL
SMILES: CCC(C)n1ncn(-c2ccc(N3CCN(c4ccc(OCC5COC(Cn6cncn6)(c6ccc(Cl)cc6Cl)O5)cc4)CC3)cc2)c1=O (stereo not shown) [ITCZ, itraconazole]

SMILES: C[C@@H]([C@H](N)C(=O)N[C@H](C(=O)O)[C@H]1OC(n2cc(C=O)nc2O)[C@H](O)[C@@H]1O)[C@H](O)c1ccc(O)cn1 (stereo partly shown) [Nikkomycin X, nikkomycin X]
- MIC Nikkomycin X Alone (A. fumigatus FP1923, drug alone): 128 µg/mL
- MIC Nikkomycin X Combination (A. fumigatus FP1923, in combination with Test Compound): 4 µg/mL

- MIC AMPH-B Alone (A. fumigatus 8004, drug alone): 2 µg/mL
- MIC AMPH-B Combination (A. fumigatus 8004, in combination with Test Compound): 0.5 µg/mL
SMILES: C[C@@H]1[C@H](O)[C@@H](C)/C=C/C=C/C=C/C=C/C=C/C=C/C=C/[C@H](O[C@@H]2O[C@H](C)[C@@H](O)[C@H](N)[C@@H]2O)C[C@@H]2O[C@](O)(C[C@@H](O)C[C@@H](O)[C@H](O)CC[C@@H](O)C[C@@H](O)CC(=O)O[C@H]1C)C[C@H](O)[C@H]2C(=O)O [AMPH-B, amphotericin B]
